Measurements published in ChEMBL document CHEMBL4507276 (2021).

Legend:
[1] = target: Nicotinic acetylcholine receptor alpha-1/beta-1 (Homo sapiens) (UniProt P02708+P11230); experiment: NMUSCLEH_ANTAG Cerep selectivity data (BI); assay type: protein-complex assay; details: filed as antagonist, Compound concentration 20.0 uM
[2] = target: Ribosomal protein S6 kinase alpha-1 (Homo sapiens) (UniProt Q15418); experiment: RPS6KA1 Invitrogen selectivity data (BI); details: Compound concentration 3.0 uM
[3] = target: Glutamate receptor ionotropic, kainate 1 (Rattus norvegicus) (UniProt P22756); experiment: KAINATE/R Eurofins-Panlabs selectivity data (BI); details: Compound concentration 10.0 uM
[4] = target: T1, Ephrin type-B receptor 2 (Homo sapiens) (UniProt P29323); experiment: EPHB2 Invitrogen selectivity data (BI); details: Compound concentration 3.0 uM
T1 sequence (whole entry): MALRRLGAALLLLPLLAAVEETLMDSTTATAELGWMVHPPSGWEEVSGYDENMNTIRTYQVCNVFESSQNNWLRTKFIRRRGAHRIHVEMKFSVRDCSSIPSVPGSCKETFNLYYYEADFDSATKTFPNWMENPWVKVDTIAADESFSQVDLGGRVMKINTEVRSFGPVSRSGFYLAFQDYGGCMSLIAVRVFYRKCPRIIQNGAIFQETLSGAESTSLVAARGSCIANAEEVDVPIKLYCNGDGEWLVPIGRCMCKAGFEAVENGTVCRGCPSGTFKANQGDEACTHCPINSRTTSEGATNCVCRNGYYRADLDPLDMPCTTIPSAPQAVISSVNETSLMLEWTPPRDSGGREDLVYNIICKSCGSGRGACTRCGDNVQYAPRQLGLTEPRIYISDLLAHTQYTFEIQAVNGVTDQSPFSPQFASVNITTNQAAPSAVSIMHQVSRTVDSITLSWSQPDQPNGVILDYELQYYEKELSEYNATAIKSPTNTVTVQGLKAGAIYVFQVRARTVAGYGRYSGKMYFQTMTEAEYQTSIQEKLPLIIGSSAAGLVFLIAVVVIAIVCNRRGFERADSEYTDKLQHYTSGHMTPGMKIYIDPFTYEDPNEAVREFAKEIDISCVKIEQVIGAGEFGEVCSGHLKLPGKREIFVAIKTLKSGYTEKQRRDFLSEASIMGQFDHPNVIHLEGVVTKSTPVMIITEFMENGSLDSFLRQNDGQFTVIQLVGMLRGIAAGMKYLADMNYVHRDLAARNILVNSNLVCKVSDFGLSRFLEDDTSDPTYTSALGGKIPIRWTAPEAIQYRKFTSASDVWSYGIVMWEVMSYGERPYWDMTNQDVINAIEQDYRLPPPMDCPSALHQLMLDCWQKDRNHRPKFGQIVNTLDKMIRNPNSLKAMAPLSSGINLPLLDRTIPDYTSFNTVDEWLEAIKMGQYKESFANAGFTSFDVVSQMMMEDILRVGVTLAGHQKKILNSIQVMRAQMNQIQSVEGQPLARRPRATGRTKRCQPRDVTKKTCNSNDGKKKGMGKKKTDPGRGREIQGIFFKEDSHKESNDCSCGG

[5] = target: Tyrosine-protein kinase CSK (Homo sapiens) (UniProt P41240); experiment: CSK Invitrogen selectivity data (BI); details: Compound concentration 3.0 uM
[6] = target: Tyrosine-protein kinase HCK (Homo sapiens) (UniProt P08631); experiment: HCK Invitrogen selectivity data (BI); details: Compound concentration 3.0 uM
[7] = system: Leucine-rich repeat serine/threonine-protein kinase 2 (Homo sapiens), Q5S007 [G2019S]; experiment: LRRK2_G2019S Invitrogen selectivity data (BI); details: Compound concentration 3.0 uM
[8] = target: Glycogen synthase kinase-3 beta (Homo sapiens) (UniProt P49841); experiment: GSK3B Invitrogen selectivity data (BI); details: Compound concentration 3.0 uM
[9] = target: Ribosomal protein S6 kinase alpha-5 (Homo sapiens) (UniProt O75582); experiment: RPS6KA5 Invitrogen selectivity data (BI); details: Compound concentration 3.0 uM
[10] = target: Mitogen-activated protein kinase 9 (Homo sapiens) (UniProt P45984); experiment: MAPK9 Invitrogen selectivity data (BI); details: Compound concentration 3.0 uM
[11] = target: T2, Interleukin-1 receptor-associated kinase 4 (Homo sapiens) (UniProt Q9NWZ3); experiment: IRAK4 Invitrogen selectivity data (BI); details: Compound concentration 3.0 uM
T2 sequence (whole entry): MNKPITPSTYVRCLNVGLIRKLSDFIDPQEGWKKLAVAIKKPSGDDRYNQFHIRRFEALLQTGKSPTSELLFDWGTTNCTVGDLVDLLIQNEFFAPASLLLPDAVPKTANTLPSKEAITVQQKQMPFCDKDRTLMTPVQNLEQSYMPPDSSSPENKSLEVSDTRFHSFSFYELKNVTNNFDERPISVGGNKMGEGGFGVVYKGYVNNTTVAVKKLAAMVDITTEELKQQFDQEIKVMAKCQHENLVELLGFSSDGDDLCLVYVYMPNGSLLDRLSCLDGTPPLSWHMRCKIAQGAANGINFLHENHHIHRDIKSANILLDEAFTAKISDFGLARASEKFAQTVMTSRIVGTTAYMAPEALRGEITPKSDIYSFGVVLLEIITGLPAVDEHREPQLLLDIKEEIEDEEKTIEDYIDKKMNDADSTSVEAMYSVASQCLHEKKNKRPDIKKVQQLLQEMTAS

[12] = target: Protein kinase C epsilon type (Homo sapiens) (UniProt Q02156); experiment: PRKCE Invitrogen selectivity data (BI); details: Compound concentration 3.0 uM
[13] = target: Serine/threonine-protein kinase PAK 6 (Homo sapiens) (UniProt Q9NQU5); experiment: PAK6 Invitrogen selectivity data (BI); details: Compound concentration 3.0 uM
[14] = target: Calcium/calmodulin-dependent protein kinase kinase 2 (Homo sapiens) (UniProt Q96RR4); experiment: CAMKK2 Invitrogen selectivity data (BI); details: Compound concentration 3.0 uM
[15] = system: Fibroblast growth factor receptor 3 (Homo sapiens), P22607 [K650E]; experiment: FGFR3 K650E Invitrogen selectivity data (BI); details: Compound concentration 3.0 uM
[16] = target: AMPK alpha2/beta1/gamma1 (Homo sapiens) (UniProt P54646+P54619+Q9Y478); experiment: AMPK A2B1G1 Invitrogen selectivity data (BI); assay type: protein-complex assay; details: Compound concentration 3.0 uM
[17] = target: Melanin-concentrating hormone receptor 1 (Homo sapiens) (UniProt Q99705); experiment: MCH1H_AGON Cerep selectivity data (BI); details: filed as agonist, Compound concentration 20.0 uM
[18] = target: Calcium/calmodulin-dependent protein kinase type II subunit alpha (Homo sapiens) (UniProt Q9UQM7); experiment: CAMK2A Invitrogen selectivity data (BI); details: Compound concentration 3.0 uM
[19] = target: Serine/threonine-protein kinase mTOR (Homo sapiens) (UniProt P42345); experiment: FRAP1 (MTOR) Invitrogen selectivity data (BI); details: Compound concentration 3.0 uM
[20] = target: Histamine H2 receptor (Homo sapiens) (UniProt P25021); experiment: H2/H Eurofins-Panlabs selectivity data (BI); details: Compound concentration 10.0 uM

Measured: residual activity

Sequence of Serine/threonine-protein kinase PAK 6 (Homo sapiens) (Q9NQU5 whole entry, looked up): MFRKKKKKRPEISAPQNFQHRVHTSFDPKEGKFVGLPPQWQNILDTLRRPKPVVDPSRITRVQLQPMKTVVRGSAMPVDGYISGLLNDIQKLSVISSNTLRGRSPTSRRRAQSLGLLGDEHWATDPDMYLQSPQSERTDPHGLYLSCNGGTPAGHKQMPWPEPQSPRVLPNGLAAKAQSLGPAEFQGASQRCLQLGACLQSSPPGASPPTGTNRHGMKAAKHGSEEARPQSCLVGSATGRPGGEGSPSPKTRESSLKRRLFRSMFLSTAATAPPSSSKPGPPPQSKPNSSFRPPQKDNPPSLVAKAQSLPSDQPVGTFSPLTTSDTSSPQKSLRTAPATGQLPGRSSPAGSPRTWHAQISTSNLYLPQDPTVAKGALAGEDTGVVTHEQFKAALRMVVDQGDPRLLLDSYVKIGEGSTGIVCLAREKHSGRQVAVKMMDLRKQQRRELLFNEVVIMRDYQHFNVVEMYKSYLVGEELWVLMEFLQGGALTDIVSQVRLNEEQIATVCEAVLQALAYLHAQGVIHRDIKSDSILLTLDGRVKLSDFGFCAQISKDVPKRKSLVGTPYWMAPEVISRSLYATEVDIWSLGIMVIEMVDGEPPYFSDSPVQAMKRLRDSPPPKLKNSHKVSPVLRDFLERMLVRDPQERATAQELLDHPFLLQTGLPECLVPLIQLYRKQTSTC
Sequence of Mitogen-activated protein kinase 9 (Homo sapiens) (P45984 whole entry, looked up): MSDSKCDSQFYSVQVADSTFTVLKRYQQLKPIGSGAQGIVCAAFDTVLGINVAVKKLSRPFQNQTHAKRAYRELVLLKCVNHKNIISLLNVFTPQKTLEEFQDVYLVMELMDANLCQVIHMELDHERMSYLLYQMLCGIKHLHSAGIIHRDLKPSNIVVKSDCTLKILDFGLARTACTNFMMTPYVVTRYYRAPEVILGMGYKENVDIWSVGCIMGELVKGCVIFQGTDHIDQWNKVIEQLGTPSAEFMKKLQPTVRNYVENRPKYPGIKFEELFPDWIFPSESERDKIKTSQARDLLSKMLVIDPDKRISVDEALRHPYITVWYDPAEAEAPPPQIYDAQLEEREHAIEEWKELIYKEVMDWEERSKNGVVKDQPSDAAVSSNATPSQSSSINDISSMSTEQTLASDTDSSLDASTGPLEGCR
Sequence of Leucine-rich repeat serine/threonine-protein kinase 2 (Homo sapiens), Q5S007 [G2019S] (Q5S007 whole entry G2019S): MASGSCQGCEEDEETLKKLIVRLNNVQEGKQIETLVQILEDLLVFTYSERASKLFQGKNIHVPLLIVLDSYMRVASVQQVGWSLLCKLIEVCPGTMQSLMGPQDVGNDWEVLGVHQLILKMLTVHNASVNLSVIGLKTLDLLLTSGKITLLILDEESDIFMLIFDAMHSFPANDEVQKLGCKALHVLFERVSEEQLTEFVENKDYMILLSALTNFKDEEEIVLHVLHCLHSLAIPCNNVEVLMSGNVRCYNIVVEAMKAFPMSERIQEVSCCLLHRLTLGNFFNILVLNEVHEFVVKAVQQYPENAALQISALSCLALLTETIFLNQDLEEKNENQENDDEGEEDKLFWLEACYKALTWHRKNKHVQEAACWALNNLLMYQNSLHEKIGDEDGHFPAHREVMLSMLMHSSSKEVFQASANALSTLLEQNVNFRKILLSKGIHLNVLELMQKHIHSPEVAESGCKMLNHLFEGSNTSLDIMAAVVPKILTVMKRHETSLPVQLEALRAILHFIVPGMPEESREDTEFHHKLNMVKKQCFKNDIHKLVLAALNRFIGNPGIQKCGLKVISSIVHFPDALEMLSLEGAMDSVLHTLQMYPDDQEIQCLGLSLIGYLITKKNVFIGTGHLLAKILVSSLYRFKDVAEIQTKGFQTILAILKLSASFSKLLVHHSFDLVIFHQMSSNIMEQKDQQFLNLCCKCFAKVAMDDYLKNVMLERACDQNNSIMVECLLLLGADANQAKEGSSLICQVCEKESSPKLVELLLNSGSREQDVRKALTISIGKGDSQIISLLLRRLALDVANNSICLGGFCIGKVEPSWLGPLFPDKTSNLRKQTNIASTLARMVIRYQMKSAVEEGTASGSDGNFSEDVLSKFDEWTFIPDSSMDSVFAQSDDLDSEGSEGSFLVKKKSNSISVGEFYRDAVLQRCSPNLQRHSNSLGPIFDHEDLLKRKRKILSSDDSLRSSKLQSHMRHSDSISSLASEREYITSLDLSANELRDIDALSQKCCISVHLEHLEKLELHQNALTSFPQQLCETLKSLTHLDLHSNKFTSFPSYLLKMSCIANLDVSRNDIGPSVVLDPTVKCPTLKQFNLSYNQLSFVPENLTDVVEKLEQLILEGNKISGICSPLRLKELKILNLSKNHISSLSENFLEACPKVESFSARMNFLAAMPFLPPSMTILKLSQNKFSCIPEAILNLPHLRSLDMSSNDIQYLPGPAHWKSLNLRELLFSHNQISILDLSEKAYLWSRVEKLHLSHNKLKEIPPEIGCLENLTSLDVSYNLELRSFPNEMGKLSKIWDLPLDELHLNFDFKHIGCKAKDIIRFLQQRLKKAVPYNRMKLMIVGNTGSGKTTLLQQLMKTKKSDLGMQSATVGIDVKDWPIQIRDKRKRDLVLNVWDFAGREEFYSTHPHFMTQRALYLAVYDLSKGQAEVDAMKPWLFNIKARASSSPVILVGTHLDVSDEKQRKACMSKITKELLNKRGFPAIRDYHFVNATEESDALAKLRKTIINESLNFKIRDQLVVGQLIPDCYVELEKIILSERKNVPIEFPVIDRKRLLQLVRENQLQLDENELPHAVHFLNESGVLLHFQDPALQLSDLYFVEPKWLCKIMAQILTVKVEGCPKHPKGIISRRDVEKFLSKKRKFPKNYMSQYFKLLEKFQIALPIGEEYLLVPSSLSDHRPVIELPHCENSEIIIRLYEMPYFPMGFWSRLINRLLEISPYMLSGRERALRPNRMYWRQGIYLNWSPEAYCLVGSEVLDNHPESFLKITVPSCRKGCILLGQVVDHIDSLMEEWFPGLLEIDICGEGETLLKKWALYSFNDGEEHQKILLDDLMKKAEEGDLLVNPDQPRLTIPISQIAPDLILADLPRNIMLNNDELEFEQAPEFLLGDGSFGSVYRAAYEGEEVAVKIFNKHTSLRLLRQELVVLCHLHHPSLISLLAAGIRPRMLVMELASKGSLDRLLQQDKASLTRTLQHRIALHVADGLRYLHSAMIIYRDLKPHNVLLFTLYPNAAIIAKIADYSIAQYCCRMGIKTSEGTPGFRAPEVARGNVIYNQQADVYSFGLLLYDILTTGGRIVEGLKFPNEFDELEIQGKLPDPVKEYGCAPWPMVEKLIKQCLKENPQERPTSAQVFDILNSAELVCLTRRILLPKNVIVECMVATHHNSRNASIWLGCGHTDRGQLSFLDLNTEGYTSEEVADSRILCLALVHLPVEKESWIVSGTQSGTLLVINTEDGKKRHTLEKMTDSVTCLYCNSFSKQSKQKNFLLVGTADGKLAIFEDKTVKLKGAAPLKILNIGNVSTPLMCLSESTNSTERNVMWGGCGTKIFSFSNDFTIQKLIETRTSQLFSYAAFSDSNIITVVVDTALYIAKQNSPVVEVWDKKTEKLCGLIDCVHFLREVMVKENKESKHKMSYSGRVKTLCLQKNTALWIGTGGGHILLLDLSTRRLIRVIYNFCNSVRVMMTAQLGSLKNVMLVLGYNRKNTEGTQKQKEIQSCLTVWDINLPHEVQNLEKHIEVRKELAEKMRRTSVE
Sequence of Protein kinase C epsilon type (Homo sapiens) (Q02156 whole entry): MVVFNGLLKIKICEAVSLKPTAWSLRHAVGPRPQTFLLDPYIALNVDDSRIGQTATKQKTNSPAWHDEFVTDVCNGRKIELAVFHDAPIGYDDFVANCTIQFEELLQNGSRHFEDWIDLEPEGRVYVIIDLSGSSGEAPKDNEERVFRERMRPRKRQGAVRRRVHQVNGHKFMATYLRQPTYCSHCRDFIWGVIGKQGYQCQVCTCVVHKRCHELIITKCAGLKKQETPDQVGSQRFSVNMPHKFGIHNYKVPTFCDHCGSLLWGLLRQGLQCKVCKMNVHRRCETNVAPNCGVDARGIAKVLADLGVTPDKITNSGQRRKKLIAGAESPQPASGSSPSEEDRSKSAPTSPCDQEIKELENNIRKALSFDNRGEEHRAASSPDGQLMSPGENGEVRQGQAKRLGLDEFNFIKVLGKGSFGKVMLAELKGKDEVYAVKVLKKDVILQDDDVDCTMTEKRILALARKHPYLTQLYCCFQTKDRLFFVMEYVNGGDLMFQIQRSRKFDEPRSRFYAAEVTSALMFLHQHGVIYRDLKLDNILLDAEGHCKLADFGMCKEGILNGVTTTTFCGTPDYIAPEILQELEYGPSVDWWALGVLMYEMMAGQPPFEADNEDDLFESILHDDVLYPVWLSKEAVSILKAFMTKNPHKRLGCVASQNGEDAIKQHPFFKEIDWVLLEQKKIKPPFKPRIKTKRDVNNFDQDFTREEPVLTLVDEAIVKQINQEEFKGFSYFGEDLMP
Sequence of Tyrosine-protein kinase HCK (Homo sapiens) (P08631 2-526 limits assumed): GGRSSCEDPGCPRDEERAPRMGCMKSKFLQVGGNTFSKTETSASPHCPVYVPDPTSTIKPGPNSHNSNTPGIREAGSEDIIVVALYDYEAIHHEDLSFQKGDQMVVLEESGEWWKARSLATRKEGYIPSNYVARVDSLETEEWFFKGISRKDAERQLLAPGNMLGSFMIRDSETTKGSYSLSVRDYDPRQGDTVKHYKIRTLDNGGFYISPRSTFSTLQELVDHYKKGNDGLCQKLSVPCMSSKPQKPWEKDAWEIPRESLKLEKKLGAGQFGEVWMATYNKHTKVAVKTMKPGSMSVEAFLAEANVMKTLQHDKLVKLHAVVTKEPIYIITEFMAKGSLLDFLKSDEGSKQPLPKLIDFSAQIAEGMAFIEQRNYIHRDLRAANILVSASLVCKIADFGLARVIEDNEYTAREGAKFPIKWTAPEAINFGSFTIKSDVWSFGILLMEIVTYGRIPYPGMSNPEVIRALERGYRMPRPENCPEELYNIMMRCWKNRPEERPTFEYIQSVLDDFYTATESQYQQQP

CN(C)C(=O)Cn1cc(-c2nc([C@@](C)(c3ccc(-c4cnc(N)nc4)cc3)C3CC3)no2)cn1 [BI 665915]
inactive: [1] 120% | [2] 96% | [3] 90% | [4] 93.5% | [5] 95% | [6] 85% | [7] 89% | [8] 95.5% | [9] 97.5% | [10] 101% | [11] 102% | [12] 86.5% | [13] 93.5% | [14] 98% | [15] 91% | [16] 100% | [17] 116% | [18] 103% | [19] 104% | [20] 98%
